This note sets out measurements from US20100022559A1, “BISOXIMES AS FUNGICIDES” (BAYER CROPSCIENCE AG, priority 2006, published 2010).

One data set can be described thus: logP determination by HPLC on a reversed-phase column (C 18), EEC Directive 79/831 Annex V.A8. It counts as physicochemical. To be noted: method marked [b] in Table 1. How it is done:
The stated logP values were determined in accordance with EEC Directive 79/831 Annex V.A8 by HPLC (high performance liquid chromatography) on a reversed-phase column (C 18). Temperature: 43° C.
With `C=C(CON=C(C)c1cccc(C)n1)CON=C(CCC)c1ncccc1C` (single isomer, unassigned) [compound 535], the logP is 4.46^[b] (isomer B).
Regarding `C=C(CON=C(C)c1cccc(C)n1)CON=C(c1cccc(C)n1)C1CC1` (single isomer, unassigned) [compound 536], the logP was 3.19^[b] (isomer A).
Take `C=C(CON=C(C)c1cccc(C)n1)CON=C(c1cccc(C)n1)C1CC1` (single isomer, unassigned) [compound 537]: the logP was 3.46^[b] (isomer B).
On the same count and under the same terms, as for `CC(=NOCCCCCCON=C(C)c1nc(C)c(C)s1)c1cccc(C)n1` (single isomer, unassigned) [compound 539], the figure is 4.86^[b] v(isomer B).
With `CC(=NOCCCCON=C(C)c1sc(C)nc1C)c1cccc(C)n1` (single isomer, unassigned) [compound 540], the logP was 3.56^[b] (isomer A).
Take `CC(=NOCCCCCCON=C(C)c1sc(C)nc1C)c1cccc(C)n1` (single isomer, unassigned) [compound 542]: the logP was 3.99^[b] (isomer A).
For the molecule `CC(=NOCCCCCCON=C(C)c1sc(C)nc1C)c1cccc(C)n1` (single isomer, unassigned) [compound 543], the logP was 4.74^[b] (isomer B).
For `C=C(CON=C(C)c1cccc(C)n1)CON=C(C)c1sc(C)nc1C` (single isomer, unassigned) [compound 544], the logP is listed as 3.00^b] (Isomer A).
Same read-out and setting: as for `C=C(CON=C(C)c1cccc(C)n1)CON=C(C)c1sc(C)nc1C` (single isomer, unassigned) [compound 545], the figure is 3.58^[b] (isomer B).

Staying with this data set, now noted: method marker [a] (footnote not shown); isomer A / isomer B / isomer mixture as noted in the cell.
For `Cc1cccc(C(=NOCC(C)CON=C(c2cccc(C)n2)C2CC2)C2CC2)n1` (single isomer, unassigned) [compound 162], the logP is 3.28^[a] (isomer A).

Staying with this data set, now noted: method marker [b]; isomer A / isomer B / isomer mixture as noted in the cell.
As to `C=C(CON=C(C)c1cccc(C)n1)CON=C(CC)c1ncccc1C` (single isomer, unassigned) [compound 143], the logP was 3.23^[b] (isomer A).
`C=C(CON=C(C)c1cccc(C)n1)CON=C(CC(C)C)c1ncccc1C` (single isomer, unassigned) [compound 155]: the logP is 4.40^[b] (isomer A).
In the case of `C=C(CON=C(C)c1cccc(C)n1)CON=C(C)c1ncc(C(F)(F)F)cc1Cl` (single isomer, unassigned) [compound 157], the logP is 4.42^[b] (isomer A).
As to `C=C(CON=C(C)c1cccc(C)n1)CON=C(C)c1ccc(Cl)s1` (single isomer, unassigned) [compound 195], the logP is 4.82^[b] (isomer A).
Consider `C=C(CON=C(C)c1ccc(C)nc1)CON=C(C)c1cccc(C)n1` (single isomer, unassigned) [compound 200], for which the logP is 1.92^[b] (isomer A).

The data set is the same for the next values; noted with them: value marked [a].
On to `C=C(CON=C(c1cccc(C)n1)C(C)C)CON=C(c1cccc(C)n1)C(C)C` (single isomer, unassigned) [compound 274], for which the logP was 4.87^[a] (isomer B).
On to `C=C(CON=C(c1cccc(C)n1)C(C)C)CON=C(c1cccc(C)n1)C(C)C` (single isomer, unassigned) [compound 275], for which the logP is 4.90^[a] (isomer A).
Same read-out and setting: as for `Cc1cccc(C(=NOCC(C)(C)CON=C(c2cccc(C)n2)C2CC2)C2CC2)n1` (single isomer, unassigned) [compound 282], the figure is 3.75^[a] (isomer A).

The data set is the same for the next values; noted with them: value marked [b].
For the molecule `CC(=NOCC(C)CON=C(C)c1nc(C)ccc1C)c1nc(C)ccc1C` (single isomer, unassigned) [compound 268], the logP was 2.08^[b] (isomer A).
In the case of `C=C(CON=C(C)c1nc(C)ccc1C)CON=C(C)c1nc(C)ccc1C` (single isomer, unassigned) [compound 307], the logP was 2.37^[b] (isomer A).
Turning to `C=C(CON=C(C)c1nc(C)ccc1C)CON=C(C)c1nc(C)ccc1C` (single isomer, unassigned) [compound 308], the logP was 1.84^[b].
With `CCC(=NOCCCCON=C(C)c1cccc(C)n1)c1ncccc1C` (single isomer, unassigned) [compound 328], the logP is 3.65^[b] (isomer B).
`CC(=NOCCCCON=C(CC(C)C)c1cccc(C)n1)c1cccc(C)n1` (single isomer, unassigned) [compound 331]: the logP was 5.46^[b] (isomer A).
For the molecule `C=C(CON=C(C)c1ccnc(C)c1)CON=C(C)c1cccc(C)n1` (single isomer, unassigned) [compound 362], the logP is 1.71^[b] (isomer B).
As for `CC(=NOCCCCON=C(C)c1sc(C)nc1C)c1cccc(C)n1` (single isomer, unassigned) [compound 374], the logP is 3.56^[b] (isomer B).
On the same count and under the same terms, as for `CC(=NOCCCCCCON=C(C)c1nc(C)c(C)s1)c1cccc(C)n1` (single isomer, unassigned) [compound 389], the figure is 5.84^[b] (isomer A); as for `C=C(CON=C(C)c1ccccn1)CON=C(C)c1cccc(C)n1` (single isomer, unassigned) [compound 400], 3.15^[b] (isomer B); as for `C=C(CON=C(C)c1cccc(C)n1)CON=C(C)c1ccc(Cl)s1` (single isomer, unassigned) [compound 473], 4.91^[b] (isomer B).
Take `C=C(CON=C(C)c1cccc(C)n1)CON=C(C)c1ncccc1C` (single isomer, unassigned) [compound 478]: the logP was 3.11^[b] (isomer B).
Regarding `C=CCCC(=NOCCCCCCON=C(C)c1cccc(C)n1)c1ncccc1C` (single isomer, unassigned) [compound 523], the logP is 4.91^[b] (isomer A).
`C=CCCC(=NOCCCCCCON=C(C)c1cccc(C)n1)c1ncccc1C` (single isomer, unassigned) [compound 524]: the logP was 5.65^[b] (isomer B).
As for `CC(=NOCCCCON=C(c1cccc(C)n1)C(C)C)c1cccc(C)n1` (single isomer, unassigned) [compound 525], the logP is 3.65^[b] (isomer A).
Turning to `CC(=NOCCCCCCON=C(c1cccc(C)n1)C(C)C)c1cccc(C)n1` (single isomer, unassigned) [compound 526], the logP is 4.91^b](isomer A).
In the case of `CC(=NOCCCCCCON=C(c1cccc(C)n1)C(C)C)c1cccc(C)n1` (single isomer, unassigned) [compound 527], the logP was 6.03^[b](isomer B).
On to `CCC(=NOCCCCON=C(C)c1cccc(C)n1)c1ncccc1C` (single isomer, unassigned) [compound 529], for which the logP was 2.98^[b] (isomer )A.
Take `CC(=NOCCCCON=C(CC(C)C)c1cccc(C)n1)c1cccc(C)n1` (single isomer, unassigned) [compound 530]: the logP is 5.48^[b] (isomer B).
Take `CC(=NOCCCCCCON=C(Cc1ccccc1)c1ncccc1C)c1cccc(C)n1` (single isomer, unassigned) [compound 531]: the logP is 4.97^b] (isomer )A.
Consider `CCC(=NOCCCCCCON=C(C)c1cccc(C)n1)c1ncccc1C` (single isomer, unassigned) [compound 532], for which the logP was 3.99^b] (isomer )A.
As to `C=C(CON=C(C)c1ccnc(C)c1)CON=C(C)c1cccc(C)n1` (single isomer, unassigned) [compound 533], the logP is 1.74^[b] (isomer A).
For `C=C(CON=C(C)c1cccc(C)n1)CON=C(CCC)c1ncccc1C` (single isomer, unassigned) [compound 534], the logP was 3.65^[b] (isomer A).

The same data set, now with this note: value marked [c].
For `C=C(CON=C(C)c1nc(C)ccc1C)CON=C(C)c1nc(C)ccc1C` (single isomer, unassigned) [compound 308], the logP was 2.94^[c].
